Legend:
MERTK = target: T1, MERTK (Homo sapiens, UniProt Q12866); assay: TR-FRET kinase activity assay, MERTK; format: biochemical; conditions: for IC50: TR-FRET activity assay, ATP at Km, 60 minutes, read-out: Mer IC50; for Mer/Flt3 ratio (FLT3 IC50/Mer IC50): ratio calculated as FLT3 IC50/Mer IC50
T1 sequence (Q12866 21-999): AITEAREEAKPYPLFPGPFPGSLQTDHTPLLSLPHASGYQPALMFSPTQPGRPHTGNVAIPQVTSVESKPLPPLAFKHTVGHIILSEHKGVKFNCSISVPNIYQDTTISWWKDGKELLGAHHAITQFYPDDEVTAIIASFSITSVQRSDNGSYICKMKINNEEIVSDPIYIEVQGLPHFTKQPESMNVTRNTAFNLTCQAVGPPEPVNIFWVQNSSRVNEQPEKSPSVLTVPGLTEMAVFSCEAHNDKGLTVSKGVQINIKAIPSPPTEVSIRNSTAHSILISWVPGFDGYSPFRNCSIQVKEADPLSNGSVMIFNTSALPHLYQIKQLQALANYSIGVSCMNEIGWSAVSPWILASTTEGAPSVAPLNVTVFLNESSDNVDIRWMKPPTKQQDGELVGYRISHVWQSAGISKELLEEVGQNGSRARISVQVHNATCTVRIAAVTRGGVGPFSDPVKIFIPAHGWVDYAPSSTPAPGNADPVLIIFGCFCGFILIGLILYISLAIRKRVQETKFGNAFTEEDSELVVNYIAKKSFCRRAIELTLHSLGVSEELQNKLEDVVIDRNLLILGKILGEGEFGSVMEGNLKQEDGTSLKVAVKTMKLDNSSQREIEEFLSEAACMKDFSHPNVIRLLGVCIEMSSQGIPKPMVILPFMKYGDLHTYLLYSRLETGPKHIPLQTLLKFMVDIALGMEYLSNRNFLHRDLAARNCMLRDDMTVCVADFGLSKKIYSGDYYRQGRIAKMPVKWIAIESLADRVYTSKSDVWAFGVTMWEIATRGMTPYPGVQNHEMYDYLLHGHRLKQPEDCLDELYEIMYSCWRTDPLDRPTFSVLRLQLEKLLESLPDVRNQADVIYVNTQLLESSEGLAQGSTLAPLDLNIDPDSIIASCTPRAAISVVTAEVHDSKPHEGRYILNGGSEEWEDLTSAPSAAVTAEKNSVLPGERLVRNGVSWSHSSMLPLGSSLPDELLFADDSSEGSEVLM
Outline: (§1)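 Enzyme, fluorescent-labeled peptide substrate and compound were mixed, then ATP was added at each enzyme's Km. Buffer was 50 mM HEPES pH 7.5, 10 mM MgCl2, 1 mM EGTA, 0.01% Brij 35, 1 mM DTT at RT. After 60 min, EDTA quench and 30 min with Eu-anti-phosphotyrosine-site antibody; TR-FRET read gave IC50.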

TYRO3 = target: T2, TYRO3 (Homo sapiens, UniProt Q06418); assay: TR-FRET kinase activity assay, TYRO3; format: biochemical; conditions: ATP at Km, 60 minutes
T2 sequence (Q06418 41-890): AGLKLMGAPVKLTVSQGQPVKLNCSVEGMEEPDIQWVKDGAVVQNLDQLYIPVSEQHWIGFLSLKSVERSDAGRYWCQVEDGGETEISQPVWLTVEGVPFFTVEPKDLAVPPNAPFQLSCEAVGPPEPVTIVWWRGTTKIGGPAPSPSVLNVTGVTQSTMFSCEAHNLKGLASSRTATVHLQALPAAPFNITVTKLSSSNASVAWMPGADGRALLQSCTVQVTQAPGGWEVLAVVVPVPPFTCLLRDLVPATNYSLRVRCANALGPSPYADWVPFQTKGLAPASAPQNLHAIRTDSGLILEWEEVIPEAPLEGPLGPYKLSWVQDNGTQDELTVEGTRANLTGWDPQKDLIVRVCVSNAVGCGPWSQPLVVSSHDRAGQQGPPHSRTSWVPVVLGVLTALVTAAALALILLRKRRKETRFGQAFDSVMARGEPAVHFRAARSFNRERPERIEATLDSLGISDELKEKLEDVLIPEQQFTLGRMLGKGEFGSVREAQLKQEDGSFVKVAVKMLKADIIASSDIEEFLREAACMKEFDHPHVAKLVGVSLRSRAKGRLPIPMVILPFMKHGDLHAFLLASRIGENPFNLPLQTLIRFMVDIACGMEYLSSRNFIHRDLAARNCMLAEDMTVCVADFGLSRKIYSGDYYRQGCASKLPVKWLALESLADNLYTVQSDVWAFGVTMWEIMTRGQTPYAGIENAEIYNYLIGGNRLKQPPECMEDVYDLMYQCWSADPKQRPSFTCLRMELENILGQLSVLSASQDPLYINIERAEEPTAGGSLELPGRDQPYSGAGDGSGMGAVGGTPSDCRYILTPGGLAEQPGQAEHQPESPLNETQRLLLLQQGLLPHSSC
Outline: as §1

Compound | IC50 (MERTK) | Mer/Flt3 ratio (FLT3 IC50/Mer IC50) (MERTK) | IC50 (TYRO3)
CCC(CC)Nc1ncc2c(=O)n(C3CCNCC3)cc([C@H]3CC[C@H](O)CC3)c2n1 [Compound 120] | ≤ 100 nM | +++ (a ratio of >100) | ≤ 100 nM
CC1(Nc2ncc3c(OC4CCOCC4)ncc(-c4cccc(NS(C)(=O)=O)c4)c3n2)CC1 [Compound 404] | ≤ 100 nM | ++ (a ratio of between 10 and 100) | 100 to 1000 nM
COC[C@H](C)Nc1ncc2c(O[C@H]3CCN(C)C3)ncc([C@H]3CC[C@H](O)CC3)c2n1 [Compound 368] | ≤ 100 nM | +++ (a ratio of >100) | ≤ 100 nM
COCCN1C(C)(C)CC(Oc2ncc([C@H]3CC[C@H](O)CC3)c3nc(NC4(C)CC4)ncc23)CC1(C)C [Compound 379] | ≤ 100 nM | +++ (a ratio of >100) | ≤ 100 nM
COC[C@H](C)Nc1ncc2c(OC3CCOCC3)ncc(-c3ccc(C#N)cc3)c2n1 [Compound 396] | ≤ 100 nM | +++ (a ratio of >100) | 100 to 1000 nM
COC[C@H](C)Nc1ncc2c(OC3CCOCC3)ncc([C@H]3CC[C@H](O)CC3)c2n1 [Compound 122, (1S,4r)-4-(2-(((S)-1-methoxypropan-2-yl)amino)-5-((tetrahydro-2H-pyran-4-yl)oxy)pyrido[4,3-d]pyrimidin-8-yl)cyclohexan-1-ol] | ≤ 100 nM | +++ (a ratio of >100) | 100 to 1000 nM
C[C@@H](CC(F)(F)F)Nc1ncc2c(OC3C[C@H]4CC[C@@H](C3)N4C)ncc([C@H]3CC[C@H](O)CC3)c2n1 (stereo partly drawn) [Compound 370] | ≤ 100 nM | +++ (a ratio of >100) | ≤ 100 nM
CC1(Nc2ncc3c(OC4CCOCC4)ncc(-c4cccc(S(=O)(=O)N5CCC5)c4)c3n2)CC1 [Compound 405] | ≤ 100 nM | +++ (a ratio of >100) | 100 to 1000 nM
C[C@@H](CF)Nc1ncc2c(OC3CC(C)(C)N(C)C(C)(C)C3)ncc([C@H]3CC[C@H](O)CC3)c2n1 [Compound 382] | ≤ 100 nM | +++ (a ratio of >100) | ≤ 100 nM
C[C@@H](CC(F)(F)F)Nc1ncc2c(O[C@H]3C[C@@H](O)C3)ncc([C@H]3CC[C@H](O)CC3)c2n1 [Compound 360] | ≤ 100 nM | +++ (a ratio of >100) | ≤ 100 nM
C[C@H](CF)Nc1ncc2c(OC3CCOCC3)ncc([C@H]3CC[C@H](O)CC3)c2n1 [Compound 401] | ≤ 100 nM | +++ (a ratio of >100) | 100 to 1000 nM
COCCN1CCC(Oc2ncc([C@H]3CC[C@H](O)CC3)c3nc(N[C@@H](C)CC(F)(F)F)ncc23)CC1 [Compound 369] | ≤ 100 nM | +++ (a ratio of >100) | ≤ 100 nM
C[C@@H](CC(F)(F)F)Nc1ncc2c(O[C@@H]3C[C@H]4CC[C@@H](C3)N4C[C@@H]3CCOC3)ncc([C@H]3CC[C@H](O)CC3)c2n1 [Compound 416] | ≤ 100 nM | +++ (a ratio of >100) | ≤ 100 nM
CC[C@@H](C)Nc1ncc2c(OC3CC(C)(C)N(C)C(C)(C)C3)ncc([C@H]3CC[C@H](O)CC3)c2n1 [Compound 367] | ≤ 100 nM | +++ (a ratio of >100) | ≤ 100 nM
C[C@@H](CC(F)(F)F)Nc1ncc2c(OC3CCN([C@@H]4CCOC4)CC3)ncc([C@H]3CC[C@H](O)CC3)c2n1 [Compound 378] | ≤ 100 nM | +++ (a ratio of >100) | ≤ 100 nM
COC[C@H](C)Nc1ncc2c(OC3CCOCC3)ncc(C3CCC(F)(F)CC3)c2n1 [Compound 358] | ≤ 100 nM | ++ (a ratio of between 10 and 100) | 100 to 1000 nM
COC[C@H](C)Nc1ncc2c(Nc3ccc(C)nc3)ncc([C@H]3CC[C@H](O)CC3)c2n1 [Compound 374] | ≤ 100 nM | +++ (a ratio of >100) | ≤ 100 nM
C[C@@H](CC(F)(F)F)Nc1ncc2c(O[C@H]3C[C@@H](O)C3)ncc([C@H]3CC[C@](C)(O)CC3)c2n1 [Compound 423] | ≤ 100 nM | +++ (a ratio of >100) | ≤ 100 nM
C[C@H](Nc1ncc2c(O[C@H]3C[C@@H](O)C3)ncc([C@H]3CC[C@H](O)CC3)c2n1)C(F)F [Compound 411] | ≤ 100 nM | +++ (a ratio of >100) | ≤ 100 nM
COCCN1C(C)(C)CC(Oc2ncc([C@H]3CC[C@H](O)CC3)c3nc(N[C@@H](C)CCO)ncc23)CC1(C)C [Compound 380] | ≤ 100 nM | +++ (a ratio of >100) | ≤ 100 nM
COC[C@H](C)Nc1ncc2c(O[C@H]3C[C@H](C(=O)N4CCN(C)CC4)C3)ncc([C@H]3CC[C@H](O)CC3)c2n1 [Compound 419] | ≤ 100 nM | +++ (a ratio of >100) | ≤ 100 nM
COC[C@H](C)Nc1ncc2c(OC3C[C@@H](C)N(C)[C@H](C)C3)ncc([C@H]3CC[C@H](O)CC3)c2n1 (stereo partly drawn) [Compound 388] | ≤ 100 nM | +++ (a ratio of >100) | ≤ 100 nM
C[C@@H](CC(F)(F)F)Nc1ncc2c(OC3CCN(S(C)(=O)=O)CC3)ncc([C@H]3CC[C@H](O)CC3)c2n1 [Compound 389] | ≤ 100 nM | +++ (a ratio of >100) | 100 to 1000 nM
C[C@@H](CC(F)(F)F)Nc1ncc2c(O[C@@H]3C[C@H]4CC[C@@H](C3)N4[C@@H]3CCOC3)ncc([C@H]3CC[C@H](O)CC3)c2n1 [Compound 415] | ≤ 100 nM | +++ (a ratio of >100) | ≤ 100 nM
COC[C@H](C)Nc1ncc2c(OC3C[C@@H](C)N(C)[C@@H](C)C3)ncc([C@H]3CC[C@H](O)CC3)c2n1 (stereo partly drawn) [Compound 371] | ≤ 100 nM | +++ (a ratio of >100) | ≤ 100 nM
CNC(=O)c1ccc(Nc2ncc3c(OC4CCOCC4)ncc([C@H]4CC[C@H](O)CC4)c3n2)cc1 [Compound 398] | ≤ 100 nM | + (a ratio of >2.0 and <10) | ≤ 100 nM
COC[C@H](C)Nc1ncc2c(O[C@H]3C[C@@H](O)C3)ncc([C@H]3CC[C@](C)(O)CC3)c2n1 [Compound 426] | ≤ 100 nM | +++ (a ratio of >100) | ≤ 100 nM
COCCN1C(C)(C)CC(Oc2ncc([C@H]3CC[C@H](O)CC3)c3nc(N[C@@H](C)CC#N)ncc23)CC1(C)C [Compound 376] | ≤ 100 nM | +++ (a ratio of >100) | ≤ 100 nM
C[C@@H](CC(F)(F)F)Nc1ncc2c(OC3CCN(c4ncccn4)CC3)ncc([C@H]3CC[C@H](O)CC3)c2n1 [Compound 373] | ≤ 100 nM | +++ (a ratio of >100) | ≤ 100 nM

From patent US20200291018A1, “TAM KINASE INHIBITORS” (SYROS PHARMACEUTICALS, INC., priority 2017, published 2020)
